Assay results: patent US9745339B2 (GRAFFINITY PHARMACEUTICALS GMBH, priority 2012, dated 2017)

Key:
Tocilizumab = experiment: Microtiter plate chromatography of resins: binding and elution of Tocilizumab; conditions: fraction of injected protein bound; 0.5 mg/ml IgG in PBS pH 7.3
In short: (§1)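 About 30 μl resin columns loaded with 3.3 cv IgG at 0.5 mg ml^−1 in PBS (or undiluted HCP), washed with 5 cv PBS, eluted with 5 cv glycine pH 2.5. Fractions quantified by Bradford; bound fraction = (mi−mft)/mi, yield = me/mi.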

Bevacizumab [1] = target: T1, Bevacizumab (Homo sapiens, UniProt P01857); experiment: Microtiter plate chromatography of resins: binding and elution of Bevacizumab; conditions: for Bevacizumab Bound: fraction of injected protein bound, 0.5 mg/ml IgG in PBS pH 7.3, ligand immobilized on SEPHAROSE 4 FF; for Bevacizumab Yield: mass eluted (glycine pH 2.5) / mass injected
T1 construct: 0.5 mg/ml IgG in PBS pH 7.3; ligand immobilized on SEPHAR; Bevacizumab Yield; other: mass eluted (glycine pH 2.5) / mass injected; kd (dissociation constant, Langmuir isotherm); other: Bevacizumab 0.05-5 mg/ml in PBS pH 7.3, 25° C., at least 3 h; qm (maximum capacity); other: mg Bevacizumab per ml of resin; Langmuir isotherm; t0; fused on or other part: Humanized anti-VEGF-A VH domain joined N-terminally to the IGHG1 constant region (engineered, no UniProt entry)
In short: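 About 30 μl packed resin columns loaded with 3.3 cv IgG at 0.5 mg ml^−1 in PBS or undiluted HCP, washed with 5 cv PBS, eluted with 5 cv glycine pH 2.5. Protein in fractions by Bradford. Bound fraction = (injected − flowthrough)/injected; yield = eluted/injected; selectivity = Bevacizumab bound fraction / HCP bound fraction, truncated beyond 10.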

Bevacizumab [2] = target: T1, Bevacizumab; experiment: Uptake kinetics by batch adsorption (time-scale of binding); conditions: time after which 80% of equilibrium saturation occurred; 0.75 mg/ml Bevacizumab in PBS, 25° C.
Procedure: Uptake kinetics was investigated similarly by batch adsorption in 96-well filter plates. Again, 10 μl of sorbent slurry (50% v/v) were mixed with 100 μl of protein solution. […] Reactions were agitated vigorously at 25° C. for up to 80 min. Supernatants were separated rapidly by spinning through filters after 2.5, 5, 10, 20, 40 and 80 minutes and sampled for analysis. Concentrations of the antibody were analyzed by Bradford assay.
For determination of t0.8, measured concentrations in the supernatant were interpolated by fitting of double-exponentials and values of t0.8 were read out from graphs (2).

host cell proteins (HCP) = experiment: Microtiter plate chromatography of resins: binding of host cell proteins; set-up: species or system CHO cell culture; conditions: fraction of injected undiluted host cell proteins bound
In short: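 Undiluted HCP-containing flowthrough from protein A chromatography of CHO serum-free culture was loaded onto ~30 µl packed resin columns in microtiter-plate format. Columns were washed with 5 cv PBS and eluted with glycine pH 2.5, and fractions were quantified by Bradford. Bound fraction = (injected − flowthrough mass)/injected mass.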

[3] = tested on: poly-IgG from human serum (h-poly-IgG); experiment: Microtiter plate chromatography of resins: binding and elution of human poly-IgG; conditions: fraction of injected protein bound; 0.5 mg/ml IgG in PBS pH 7.3
In short: as §1

Bevacizumab [4] = target: T1, Bevacizumab; experiment: Dynamic binding capacity by column chromatography
Procedure: Dynamic binding capacities were determined by column chromatography with purified Bevacizumab. Resins were packed into analytical columns of 25 mm length and 3 mm inner diameter. Columns were fed with 1 mg/ml antibody in phosphate-buffered saline (150 mM NaCl, 20 mM phosphate buffer, pH 7.3) at a flow rate of 50 cm/h (3 min column residence time), while the concentration of antibody in effluents was monitored online via absorbance at 280 nm. Antibody was loaded until complete breakthrough of the feed. Dynamic binding capacities were determined at the 10% breakthrough. Equilibrium capacities were determined by integration of the area above the breakthrough curve. Bound antibody was stripped from columns by elution with glycine at pH 3.0.
It was calculated as the time t0.1 after which 10% breakthrough occurred, multiplied by the flow rate F and feed concentration cf. dynamiccapacity=t0.1·F·cf
Equilibrium capacity is defined as the maximum amount of antibody that binds to a column for a given feed stream concentration. It was calculated by evaluation of the following integral
[formula] containing the feed concentration cf, effluent concentration over time c(t) and flow rate F. The integral was evaluated numerically. Integration was limited to the time after which complete breakthrough had occurred. […]

Palivizumab = experiment: Microtiter plate chromatography of resins: binding and elution of Palivizumab; conditions: fraction of injected protein bound; 0.5 mg/ml IgG in PBS pH 7.3
In short: as §1

[5] = Alkaline stability of ligands in 0.5 M sodium hydroxide; type: physicochemical; conditions: 25° C., 8 days, hydrolysis monitored by LC-MS, read-out: t0.5 (half-life) (converted)
Procedure: A subset of ligands from Example 1 was tested for its alkaline stability. Ligands were treated with 0.5 M sodium hydroxide at 25° C. for 8 days. Hydrolysis was monitored by LC-MS analysis.

Cetuximab = experiment: Microtiter plate chromatography of resins: binding and elution of Cetuximab; conditions: fraction of injected protein bound; 0.5 mg/ml IgG in PBS pH 7.3
In short: as §1

Bevacizumab [6] = target: T1, Bevacizumab; experiment: Langmuir isotherms by batch adsorption; type: binding; conditions: for qm (maximum capacity): mg Bevacizumab per ml of resin, Langmuir isotherm; for Kd: Bevacizumab 0.05-5 mg/ml in PBS pH 7.3, 25° C., at least 3 h, read-out: kd (dissociation constant, Langmuir isotherm) (converted)

| SMILES | Tocilizumab Bound (Tocilizumab) [%] | Bevacizumab Bound (Bevacizumab [1]) [%] | Bevacizumab Yield (Bevacizumab [1]) [%] | t0.8 (time-scale of binding) (Bevacizumab [2]) [min] | HCP Bound (host cell proteins (HCP)) [%] | h-poly-IgG Bound [3] [%] | Dynamic Capacity (Bevacizumab [4]; 10% breakthrough, 1 mg/ml Bevacizumab, 50 cm/h (3 min residence time)) [mg/mL] | Equilibrium Capacity (Bevacizumab [4]; feed concentration 1 mg/ml Bevacizumab, integration above breakthrough curve) [mg/mL] | Palivizumab Bound (Palivizumab) [%] | half-life [5] [days] | Cetuximab Bound (Cetuximab) [%] | qm (maximum capacity) (Bevacizumab [6]) [mg/mL] | Kd (Bevacizumab [6]) [µM] |
| --- | --- | --- | --- | --- | --- | --- | --- | --- | --- | --- | --- | --- | --- |
| NCCCn1cnc2cc(C(=O)Nc3nnc(-c4ccco4)s3)ccc21 [Ligand L05, 1-(3-Amino-1-propyl)benzimidazole-5-carboxylic acid N-[5-(2-furyl)-1,3,4-thiadiazol-2-yl]amide] | 100 | 100 | 101 | 9.8 | 17 | 100 | 25 | 39 | 100 | > 41.6 | 100 | 47 |  |
| CCc1nc2cc(C(=O)Nc3nc(-c4ccccn4)cs3)ccc2n1CCCN [Ligand L43, 1-(3-Amino-1-propyl)-2-ethylbenzimidazole-5-carboxylic acid N-[4-(2-pyridyl)thiazol-2-yl] amide] | 100 | 100 | 95 | 8.2 | 18 | 100 |  |  | 98 | > 41.6 | 100 | 43 | 399 |
| NCCCn1cnc2cc(NC(=O)c3cn4ccsc4n3)ccc21 [Ligand L30, 1-(3-Amino-1-propyl)-5-[(imidazo-[2,1-b]thiazol-6-yl)carboxamido]benzimidazole] | 100 | 100 | 100 | 9.3 | 21 | 94 |  |  | 93 | 37.6 | 100 | 40 | 358 |
| Cc1nc2cc(C(=O)Nc3nnc(-c4ccco4)s3)ccc2n1CCCN [Ligand L39, 1-(3-Amino-1-propyl)-2-methylbenzimidazole-5-carboxylic acid N-[5-(2-furyl)-1,3,4-thiadiazol-2-yl] amide] | 100 | 100 | 85 | 7.8 | 10 | 100 |  |  | 100 | > 41.6 | 100 | 49 |  |
| Cn1nc(C(=O)Nc2ccc3c(c2)ncn3CCCN)c2ccccc21 [Ligand L01, 1-(3-Amino-1-propyl)-5-[(1-methylindazol-3-yl)carboxamido]benzimidazole] | 100 | 100 | 90 | 9.2 | 33 | 100 |  |  | 99 | 35 | 100 | 40 | 210 |
| NCCCn1cnc2cc(C(=O)Nc3nncs3)ccc21 [Ligand L13, 1-(3-Amino-1-propyl)benzimidazole-5-carboxylic acid N-(1,3,4-thiadiazol-2-yl) amide] | 100 | 100 | 98 | 7.0 | 21 | 97 |  |  | 97 | > 41.6 | 100 | 37 |  |
| NCCCn1cnc2cc(C(=O)Nc3nc(-c4ccccn4)cs3)ccc21 [Ligand L23, 1-(3-Amino-1-propyl)benzimidazole-5-carboxylic acid N-[4-(2-pyridyl)thiazol-2-yl] amide] | 100 | 100 | 107 | 7.7 | 13 | 100 |  |  | 100 | > 41.6 | 100 | 46 | 122 |
| NCCCNc1ccc(C(=O)Nc2nc(-c3ccccn3)cs2)cn1 [Ligand L40, 6-[(3-Amino-1-propyl)amino]nicotinic acid N-[4-(2-pyridyl)thiazol-2-yl] amide] | 99 | 100 | 101 | 9.2 | 20.5 | 98 |  |  | 89 | 32.6 | 100 | 39 |  |
